Laboratory results as given in BindingDB's records for patent US8962648 (Oncotherapy Science, 2015).
Values joined by “and” are separate entries in the source; they are usually repeats but may differ in a detail not shown here. Equal entries are not always repeated.

Biological target: T1, Lymphokine-activated killer T-cell-originated protein kinase (Homo sapiens, UniProt Q96KB5)
T1 sequence (Q96KB5 whole entry): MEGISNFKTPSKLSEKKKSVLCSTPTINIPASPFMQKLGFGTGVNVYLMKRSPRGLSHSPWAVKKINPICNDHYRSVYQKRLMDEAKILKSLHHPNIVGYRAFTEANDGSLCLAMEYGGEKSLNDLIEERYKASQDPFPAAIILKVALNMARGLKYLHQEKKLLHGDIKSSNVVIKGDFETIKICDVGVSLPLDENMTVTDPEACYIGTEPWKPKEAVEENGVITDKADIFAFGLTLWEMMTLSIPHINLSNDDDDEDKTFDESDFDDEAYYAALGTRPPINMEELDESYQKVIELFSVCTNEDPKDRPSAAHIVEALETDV
Assay: Kinase Assay
Settings: pH 7.4; 25 °C
Procedure: PBK activity was determined in the presence or absence of compounds using fluorescein isothiocyanate-labeled (FITC-labeled) histone H3 peptide as a substrate. […] The serially diluted compounds, 0.8 ng/micro-L PBK (Carna Biosciences) and 100 nM FITC-labeled histone H3 peptide were reacted in a reaction buffer (20 mM HEPES, 0.01% Tween-20, 0.3 mM MgCl2, 2 mM dithiothreitol, 50 micro-M ATP, pH 7.4) at room temperature for 1 hour. The reaction was stopped by the addition of three fold assay volume of progressive binding solution. Following 0.5 hour incubation at room temperature.

| Structure (SMILES) | IC50 |
| --- | --- |
| CN(C)CCc1ccc(-c2c(O)ccc3[nH]c(=O)c4sccc4c23)cc1F [US8962648, 327] | 1.9 nM |
| NCc1ccc(-c2c(O)cc(Cl)c3[nH]c(=O)c4sccc4c23)cc1 [US8962648, 329] | 16 nM |
| O=c1[nH]c2ccc(O)c(-c3ccc(S(=O)(=O)NCCCl)cc3)c2c2ccsc12 [US8962648, 332] | 23 nM |
| COc1ccc2[nH]c(=O)c3sccc3c2c1-c1ccc(S(=O)(=O)NCCF)cc1 [US8962648, 333] | 31 nM |
| CC(C)(N)c1ccc(-c2c(O)cc(Cl)c3[nH]c(=O)c4sccc4c23)cc1 [US8962648, 334] | 10 nM |
| C[C@@H](c1ccc(-c2c(O)ccc3[nH]c(=O)c4sccc4c23)cc1)N(C)C [US8962648, 335] | 2.9 nM |
| CCC(N)c1ccc(-c2c(O)ccc3[nH]c(=O)c4sccc4c23)cc1 (stereo not drawn) [US8962648, 336] | 0.82 nM |
| CCC(N)c1ccc(-c2c(OC)ccc3[nH]c(=O)c4sccc4c23)cc1 (stereo not drawn) [US8962648, 337] | 5.2 nM |
| CCC(c1ccc(-c2c(O)ccc3[nH]c(=O)c4sccc4c23)cc1)N(CC)CC (stereo not drawn) [US8962648, 338] | 3.7 nM |
| CCC(c1ccc(-c2c(O)ccc3[nH]c(=O)c4sccc4c23)cc1)N(C)C (stereo not drawn) [US8962648, 339] | 1.9 nM |
| CC(c1ccc(-c2c(O)c(F)c(F)c3[nH]c(=O)c4sccc4c23)cc1)N(C)C (stereo not drawn) [US8962648, 341] | 34 nM |
| NC1Cc2ccc(-c3c(O)ccc4[nH]c(=O)c5sccc5c34)cc2C1 (stereo not drawn) [US8962648, 345] | 1.2 nM |
| CC(c1ccc(-c2cccc3[nH]c(=O)c4sccc4c23)cc1)N(C)C (stereo not drawn) [US8962648, 346] | 9.2 nM |
| CC(NS(C)(=O)=O)c1ccc(-c2c(O)ccc3[nH]c(=O)c4sccc4c23)cc1 (stereo not drawn) [US8962648, 347] | 3.7 nM and 2 nM |
| NCC1(c2ccc(-c3c(O)ccc4[nH]c(=O)c5sccc5c34)cc2)CC1 [US8962648, 348] | 1.9 nM |
| CC(c1ccc(-c2c(O)ccc3[nH]c(=O)c4sccc4c23)cc1F)N(C)C (stereo not drawn) [US8962648, 349] | 1.9 nM |
| O=c1[nH]c2ccc(O)c(-c3ccc4c(c3)CNCC4)c2c2ccsc12 [US8962648, 353] | 2 nM |
| CCN(CC)C(C)c1ccc(-c2c(O)ccc3[nH]c(=O)c4sccc4c23)cc1F (stereo not drawn) [US8962648, 356] | 3.6 nM |
| CC(N)c1ccc(-c2c(O)ccc3[nH]c(=O)c4sccc4c23)cc1F (stereo not drawn) [US8962648, 359] | 0.92 nM |
| N#CC1(c2ccc(-c3c(O)ccc4[nH]c(=O)c5sccc5c34)cc2)CC1 [US8962648, 361] | 32 nM |
| COc1ccc2[nH]c(=O)c3sccc3c2c1-c1ccc(C(C)CN)cc1 (stereo not drawn) [US8962648, 373] | 3.2 nM |
| CN(C)CC1(c2ccc(-c3c(O)ccc4[nH]c(=O)c5sccc5c34)cc2)CC1 [US8962648, 379] | 3.6 nM |
| CCNC(C)c1ccc(-c2c(O)ccc3[nH]c(=O)c4sccc4c23)cc1 (stereo not drawn) [US8962648, 385] | 3.9 nM |
| CC(N)c1ccc(-c2c(O)cc(Br)c3[nH]c(=O)c4sccc4c23)cc1 (stereo not drawn) [US8962648, 1032] | 47 nM |
| CC(CBr)NS(=O)(=O)c1ccc(-c2c(O)ccc3[nH]c(=O)c4sccc4c23)cc1 (stereo not drawn) [US8962648, 1062] | 31 nM |

| Structure (SMILES) | IC50 |
| --- | --- |
| CN[C@@H](C)c1ccc(-c2c(OC)ccc3[nH]c(=O)c4sccc4c23)cc1 [US8962648, 1064] | 2.5 nM |
| CC(C)OC(=O)Oc1ccc2[nH]c(=O)c3sccc3c2c1-c1ccc(C(C)N)cc1 (stereo not drawn) [US8962648, 1077] | 76 nM |
| CN[C@@H](C)c1ccc(-c2c(O)ccc3[nH]c(=O)c4sccc4c23)cc1 [US8962648, 1082] | 1.1 nM |
| CN[C@@H](C)c1ccc(-c2c(O)cc(Cl)c3[nH]c(=O)c4sccc4c23)cc1 [US8962648, 1087] | 19 nM |
| CCC(N)c1ccc(-c2c(O)cc(Cl)c3[nH]c(=O)c4sccc4c23)cc1 (stereo not drawn) [US8962648, 1088] | 16 nM |
| O=c1[nH]c2ccc(O)c(-c3ccc(S(=O)(=O)NCCBr)cc3)c2c2c1CCC2 [US8962648, 1094] | 10 nM |
| CC(N)Cc1ccc(-c2c(O)ccc3[nH]c(=O)c4sccc4c23)cc1 (stereo not drawn) [US8962648, 1095] | 1.3 nM |
| CC(=O)Oc1ccc2[nH]c(=O)c3sccc3c2c1-c1ccc(C(C)N)cc1 (stereo not drawn) [US8962648, 1099] | 33 nM |
| CC(N)Cc1ccc(-c2c(O)cc(Cl)c3[nH]c(=O)c4sccc4c23)cc1 (stereo not drawn) [US8962648, 1106] | 41 nM |
| NCC1(c2ccc(-c3c(O)cc(Cl)c4[nH]c(=O)c5sccc5c34)cc2)CC1 [US8962648, 1116] | 22 nM |
| CC[C@H](N)c1ccc(-c2c(O)ccc3[nH]c(=O)c4sccc4c23)cc1 [US8962648, 1120] | 0.88 nM |
| CC[C@H](N)c1ccc(-c2c(OC)ccc3[nH]c(=O)c4sccc4c23)cc1 [US8962648, 1121] | 2.9 nM |
| C[C@@H](N)c1ccc(-c2c(O)cc(Br)c3[nH]c(=O)c4sccc4c23)cc1 [US8962648, 1123] | 33 nM |
| CCN[C@H](CC)c1ccc(-c2c(O)ccc3[nH]c(=O)c4sccc4c23)cc1 [US8962648, 1127] | 1.4 nM |
| CC[C@@H](c1ccc(-c2c(O)ccc3[nH]c(=O)c4sccc4c23)cc1)N(C)C [US8962648, 1128] | 2.2 nM |
| CC[C@@H](N)c1ccc(-c2c(O)ccc3[nH]c(=O)c4sccc4c23)cc1 [US8962648, 1131] | 1.3 nM |
| CN[C@H](C)c1ccc(-c2c(O)cc(Br)c3[nH]c(=O)c4sccc4c23)cc1 [US8962648, 1135] | 30 nM |
| O=c1[nH]c2ccc(O)c(-c3ccc(S(=O)(=O)NCCCl)cc3)c2c2c1CCC2 [US8962648, 1145] | 13 nM |
| CC[C@H](NC)c1ccc(-c2c(O)ccc3[nH]c(=O)c4sccc4c23)cc1 [US8962648, 1148] | 1.3 nM |
| CC[C@@H](N)c1ccc(-c2c(O)cc(Br)c3[nH]c(=O)c4sccc4c23)cc1 [US8962648, 1150] | 47 nM |
| CC[C@H](c1ccc(-c2c(O)ccc3[nH]c(=O)c4sccc4c23)cc1)N(C)C [US8962648, 1151] | 2.5 nM |
| CC[C@H](NC)c1ccc(-c2c(O)cc(Cl)c3[nH]c(=O)c4sccc4c23)cc1 [US8962648, 1154] | 9.4 nM |
| CC[C@@H](N)c1ccc(-c2c(O)cc(C)c3[nH]c(=O)c4sccc4c23)cc1 [US8962648, 1157] | 18 nM |
| CC[C@@H](N)c1ccc(-c2c(O)cc(Cl)c3[nH]c(=O)c4sccc4c23)cc1 [US8962648, 1159] | 26 nM |
| CCC(C#N)c1ccc(-c2c(O)ccc3[nH]c(=O)c4sccc4c23)cc1 (stereo not drawn) [US8962648, 1162] | 13 nM |

| Structure (SMILES) | IC50 |
| --- | --- |
| C[C@H](CN)c1ccc(-c2c(O)ccc3[nH]c(=O)c4sccc4c23)cc1 [US8962648, 1163] | 1.3 nM |
| CNCCc1ccc(-c2c(O)cc(Cl)c3[nH]c(=O)c4sccc4c23)cc1 [US8962648, 1165] | 58 nM |
| C[C@H](CN(C)C)c1ccc(-c2c(O)ccc3[nH]c(=O)c4sccc4c23)cc1 [US8962648, 1172] | 4 nM |
| CC(CN)c1ccc(-c2c(O)ccc3[nH]c(=O)c4sccc4c23)cc1F (stereo not drawn) [US8962648, 1174] | 1.5 nM |
| CNC[C@H](C)c1ccc(-c2c(OC)ccc3[nH]c(=O)c4sccc4c23)cc1 [US8962648, 1189] | 3 nM |
| CNC[C@@H](C)c1ccc(-c2c(O)ccc3[nH]c(=O)c4sccc4c23)cc1 [US8962648, 1197] | 2.8 nM |
| CCC(CC)(CN)c1ccc(-c2c(O)ccc3[nH]c(=O)c4sccc4c23)cc1 [US8962648, 1209] | 1.8 nM |
| CNC[C@@H](C)c1ccc(-c2c(O)cc(C)c3[nH]c(=O)c4sccc4c23)cc1 [US8962648, 1215] | 60 nM |
| COc1cc(Cl)c2[nH]c(=O)c3sccc3c2c1-c1ccc(CCN)c(F)c1 [US8962648, 1218] | 87 nM |
| NCCc1cc(Br)c(-c2c(O)ccc3[nH]c(=O)c4sccc4c23)cc1O [US8962648, 1224] | 6.4 nM |
| CNCCc1ccc(-c2c(O)cc(Br)c3[nH]c(=O)c4sccc4c23)cc1F [US8962648, 1245] | 45 nM |
| CC(C)(CN)c1ccc(-c2c(O)cc(Br)c3[nH]c(=O)c4sccc4c23)cc1 [US8962648, 1247] | 72 nM |
| COc1cc(C)c2[nH]c(=O)c3sccc3c2c1-c1ccc(C2(CN)CC2)cc1 [US8962648, 1251] | 55 nM |
| Cc1cc(O)c(-c2ccc(C3(CN)CC3)cc2)c2c1[nH]c(=O)c1sccc12 [US8962648, 1254] | 9.6 nM |
| CNCCc1ccc(-c2c(O)cc(C)c3[nH]c(=O)c4sccc4c23)cc1F [US8962648, 1258] | 25 nM |
| CC(C)(CN)c1ccc(-c2c(O)cc(Cl)c3[nH]c(=O)c4sccc4c23)cc1 [US8962648, 1260] | 75 nM |
| CN[C@H](C)c1ccc(-c2c(O)cc(C)c3[nH]c(=O)c4sccc4c23)cc1 [US8962648, 1262] | 12 nM |
| COc1cc(C)c2[nH]c(=O)c3sccc3c2c1-c1ccc(CCN)c(Cl)c1 [US8962648, 1263] | 33 nM |
| Cc1cc(O)c(-c2ccc(CCN)c(Cl)c2)c2c1[nH]c(=O)c1sccc12 [US8962648, 1264] | 3 nM |
| CN[C@H](C)c1ccc(-c2c(OC)cc(C)c3[nH]c(=O)c4sccc4c23)cc1 [US8962648, 1265] | 67 nM |
| NCCc1ccc(-c2c(O)cc(Cl)c3[nH]c(=O)c4sccc4c23)cc1Cl [US8962648, 1268] | 3.9 nM |
| CC(C)(CN)c1ccc(-c2c(O)ccc3[nH]c(=O)c4sccc4c23)cc1F [US8962648, 1271] | 1 nM |
| CCC(CN)c1ccc(-c2c(OC)cc(C)c3[nH]c(=O)c4sccc4c23)cc1 (stereo not drawn) [US8962648, 1277] | 63 nM |
